From publication PMC12497685, “Anticoronavirus Isoquinoline Alkaloids: Unraveling the Secrets of Their Structure–Activity Relationship” (Influenza and Other Respiratory Viruses, 2025)
“And” between values parts separate entries of the source, which are not always exact repeats. Equal values may be shown once. Read-outs that look alike come from different tables or passages of the source.

Legend:
[1] = tested on: HCoV‐229E; assay: microbe, parasite or virus in culture; assay type: cell-based; conditions: n = 1; for inhibition at 10 µM: Human coronavirus 229E, Huh-7, read-out: Protective effects HCoV-229E %
[2] = tested on: Huh7 cells; conditions: n = 1
[3] = at 10 μM, compared with vehicle control, Huh7 cells
[4] = at 10 μM, compared with vehicle control
[5] = tested at 1 μM due to low solubility in DMSO

Compound | Protective effects HCoV-229E % [1, 3] | Cytotoxicity to the host Huh7 cells % [2, 4] | inhibition at 10 µM [1, 3] [%] | Protective effects HCoV-229E % [1, 5] | Cytotoxicity to the host Huh7 cells % [2, 5]
O[C@H]1C=C[C@@]23c4cc5c(cc4CN(C[C@@H]2O)[C@H]3C1)OCO5 [Compound 2, (+)‐hamayne] | — (Not active (insignificant protective effects below 20%)) | — (Non-toxic (insignificant cytotoxic effects, below 20%)) | – | – | –
CO[C@@H]1C=C[C@@]23c4cc5c(cc4CN(C[C@@H]2O)[C@H]3C1)OCO5 [Compound 3, (+)‐haemanthamine] | – | 50% | 50 | – | –
COc1cc2c(cc1O)[C@@H]1[C@H](O)[C@@H](OC)C=C3CCN(C2)[C@H]31 [Compound 4, 9‐O‐demethylgalanthine] | — (Not active (insignificant protective effects below 20%)) | — (Non-toxic (insignificant cytotoxic effects, below 20%)) | – | – | –
CO[C@@H]1C=C[C@@]23c4cc5c(cc4CO[C@]2(O)CN(C)[C@H]3C1)OCO5 [Compound 5, (+)‐tazettine] | — (Not active (insignificant protective effects below 20%)) | — (Non-toxic (insignificant cytotoxic effects, below 20%)) | – | – | –
COc1cc2c(cc1OC)[C@@H](O)O[C@@H]1CC=C3CCN(C)[C@H]3[C@H]21 [Compound 7, lycorenine] | — (Not active (insignificant protective effects below 20%)) | 20% | – | – | –
CN1CCC2=CCC3OC(O)c4cc5c(cc4C3C21)OCO5 (stereo not shown) [Compound 8, oduline] | — (Not active (insignificant protective effects below 20%)) | 20% | – | – | –
O[C@H]1[C@H]2c3cc4c(cc3CN3CCC(=C[C@@H]1O)[C@H]23)OCO4 [Compound 9, lycorine] | – | — (Non-toxic (insignificant cytotoxic effects, below 20%)) | < 20 | – | –
COc1cc2c(cc1OC)[C@H]1[C@H]3C(=CC[C@H]1OC2=O)CCN3C [Compound 10, homolycorine] | – | — (Non-toxic (insignificant cytotoxic effects, below 20%)) | 40 | – | –
CN1CCC2=CC[C@H]3OC(=O)c4cc5c(cc4[C@H]3[C@@H]21)OCO5 [Compound 11, masonine] | — (Not active (insignificant protective effects below 20%)) | — (Non-toxic (insignificant cytotoxic effects, below 20%)) | – | – | –
CN1CCC2=C[C@H](O)[C@H]3OC(=O)c4cc5c(cc4[C@H]3[C@@H]21)OCO5 [Compound 12, hippeastrine] | — (Not active (insignificant protective effects below 20%)) | 25% | – | – | –
O[C@H]1C=C[C@@]23CCN(Cc4cc5c(cc42)OCO5)[C@@H]3C1 [Compound 14, (−)‐crinine] | — (Not active (insignificant protective effects below 20%)) | — (Non-toxic (insignificant cytotoxic effects, below 20%)) | – | – | –
O[C@@H]1CC=C2CCN3Cc4cc5c(cc4[C@H]1[C@@H]23)OCO5 [Compound 15, (−)‐caranine] | — (Not active (insignificant protective effects below 20%)) | — (Non-toxic (insignificant cytotoxic effects, below 20%)) | – | – | –
COc1cc2c(cc1Oc1c3c(cc(OC)c1OC)CCN(C)C3)C(Cc1ccc(O)cc1)N(C)CC2 (stereo not drawn) [Compound 20, (−)‐muraricine] | 50% | — (Non-toxic (insignificant cytotoxic effects, below 20%)) | – | – | –
COc1ccc2cc3n(c(=O)c2c1OC)CCc1cc2c(cc1-3)OCO2 [Compound 22, 8‐oxoberberine] | — (Not active (insignificant protective effects below 20%)) | — (Non-toxic (insignificant cytotoxic effects, below 20%)) | – | – | –
COc1cc2c(cc1OC)C1Cc3cc(OC)c(OC)cc3[C@H](C2)N1C [Compound 23, argemonine] | — (Not active (insignificant protective effects below 20%)) | — (Non-toxic (insignificant cytotoxic effects, below 20%)) | – | – | –
COc1cc2c(cc1OC)C1Cc3ccc(OC)c(O)c3C(C2)N1C (stereo not drawn) [Compound 24, (−)‐platycerine] | — (Not active (insignificant protective effects below 20%)) | — (Non-toxic (insignificant cytotoxic effects, below 20%)) | – | – | –
COc1ccc2c(c1OC)CN1CCc3cc4c(cc3C1C2)OCO4 (stereo not drawn) [Compound 26, (+)‐canadine] | — (Not active (insignificant protective effects below 20%)) | — (Non-toxic (insignificant cytotoxic effects, below 20%)) | – | – | –
COc1ccc2c(c1O)-c1c3c(cc4c1[C@H](C2)N(C)CC4)OCO3 [Compound 28, (+)‐bulbocapnine] | — (Not active (insignificant protective effects below 20%)) | — (Non-toxic (insignificant cytotoxic effects, below 20%)) | – | – | –
COc1ccc2c(c1OC)CN(C)CCc1cc3c(cc1C(=O)C2)OCO3 [Compound 29, Allocryptopine] | – | — (Non-toxic (insignificant cytotoxic effects, below 20%)) | < 20 | – | –

Compound | Protective effects HCoV-229E % [1, 3] | Cytotoxicity to the host Huh7 cells % [2, 4] | inhibition at 10 µM [1, 3] [%] | Protective effects HCoV-229E % [1, 5] | Cytotoxicity to the host Huh7 cells % [2, 5]
COc1ccc(CC2c3cc4c(cc3CCN2C)OCO4)c(C=O)c1OC (stereo not drawn) [Compound 30, (+)‐canadaline] | — (Not active (insignificant protective effects below 20%)) | — (Non-toxic (insignificant cytotoxic effects, below 20%)) | – | – | –
COc1cc2c(cc1OC)[C@H]1[C@@H](C)c3ccc(OC)c(OC)c3CN1CC2 [Compound 31, (+)‐corydaline] | — (Not active (insignificant protective effects below 20%)) | — (Non-toxic (insignificant cytotoxic effects, below 20%)) | – | – | –
COc1cc2c(cc1O)[C@@H]1Cc3ccc(OC)c(OC)c3CN1CC2 [Compound 32, tetrahydrocolumbamine] | — (Not active (insignificant protective effects below 20%)) | — (Non-toxic (insignificant cytotoxic effects, below 20%)) | – | – | –
COc1cc2c(cc1O)[C@@H]1Cc3ccc(OC)c(O)c3CN1CC2 [Compound 33, (−)‐scoulerine] | — (Not active (insignificant protective effects below 20%)) | 40% and 35%–40% | – | – | –
COc1cc2c(cc1O)[C@@H]1Cc3cc4c(cc3[C@H](C2)N1C)OCO4 [Compound 34, (−)‐caryachine] | — (Not active (insignificant protective effects below 20%)) | — (Non-toxic (insignificant cytotoxic effects, below 20%)) | – | – | –
COc1ccc2c(c1OC)[C@@H]1Cc3cc4c(cc3[C@H](C2)N1C)OCO4 [Compound 36, O‐methylneocarychine] | — (Not active (insignificant protective effects below 20%)) | — (Non-toxic (insignificant cytotoxic effects, below 20%)) | – | – | –
COc1cc2c(cc1OC)[C@@]1(Cc3ccc4c(c3[C@@H]1O)OCO4)N(C)CC2 [Compound 38, (−)‐fumaricine] | — (Not active (insignificant protective effects below 20%)) | — (Non-toxic (insignificant cytotoxic effects, below 20%)) | – | – | –
COc1cc2c(cc1OC)C1(Cc3ccc4c(c3C1OC(C)=O)OCO4)N(C)CC2 (stereo not drawn) [Compound 39, (−)‐O‐methylfumarophycine] | — (Not active (insignificant protective effects below 20%)) | — (Non-toxic (insignificant cytotoxic effects, below 20%)) | – | – | –
COc1cc2c(cc1O)C1(Cc3ccc4c(c3C1O)OCO4)N(C)CC2 (stereo not drawn) [Compound 40, (−)‐fumaritine] | – | – | – | — (Not active (insignificant protective effects below 20%)) | — (Non-toxic (insignificant cytotoxic effects, below 20%))
CN1CCc2cc3c(cc2[C@]12Cc1ccc4c(c1C2=O)OCO4)OCO3 [Compound 41, (+)‐fumariline] | — (Not active (insignificant protective effects below 20%)) | — (Non-toxic (insignificant cytotoxic effects, below 20%)) | – | – | –
COc1cc2c(cc1O)[C@]1(Cc3ccc4c(c3C1=O)OCO4)N(C)CC2 [Compound 42, (+)‐parfumine] | — (Not active (insignificant protective effects below 20%)) | — (Non-toxic (insignificant cytotoxic effects, below 20%)) | – | – | –
COc1cc2c(cc1OC)C1Cc3ccc4c(c3CN1CC2)OCO4 (stereo not drawn) [Compound 43, (−)‐sinactine] | — (Not active (insignificant protective effects below 20%)) | — (Non-toxic (insignificant cytotoxic effects, below 20%)) | – | – | –
COc1cc2c(cc1OC)C(=O)Cc1ccc3c(c1CN(C)CC2)OCO3 [Compound 45, cryptopine] | — (Not active (insignificant protective effects below 20%)) | — (Non-toxic (insignificant cytotoxic effects, below 20%)) | – | – | –
CN1CCc2cc3c(cc2[C@H]1[C@@H]1OC(=O)c2c1ccc1c2OCO1)OCO3 [Compound 46, (+)‐bicuculline] | — (Not active (insignificant protective effects below 20%)) | — (Non-toxic (insignificant cytotoxic effects, below 20%)) | – | – | –
COc1cc2c(cc1OC)-c1c(OC)c(OC)cc3c1[C@H](C2)N(C)CC3 [Compound 47, glaucine] | – | — (Non-toxic (insignificant cytotoxic effects, below 20%)) | < 20 | – | –
O[C@@H]1Cc2cc3c(cc2[C@@H]2NCc4c(ccc5c4OCO5)[C@H]12)OCO3 [Compound 48, norchelidonine] | – | 50% | 50 | – | –
c1cc2c(c3c1C[C@H]1c4cc5c(cc4CCN1C3)OCO5)OCO2 [Compound 49, (−)‐stylopine] | — (Not active (insignificant protective effects below 20%)) | — (Non-toxic (insignificant cytotoxic effects, below 20%)) | – | – | –
(+)‐thalictricavine [Compound 27] | — (Not active (insignificant protective effects below 20%)) | – | – | – | –
